Source: US11883387B2, “PqsR inverse agonists” (HELMHOLTZ-ZENTRUM FÜR INFEKTIONSFORSCHUNG GMBH, priority 2018, dated 2024)

Target: PqsR (Pseudomonas aeruginosa, UniProt Q9I4X0)
Experiment: E. coli based β-galactosidase reporter gene assay (PqsR inverse agonistic activity)
Format: cell-based
Parameters: expressed in transfected cells; host or cells: Escherichia coli DH5α
Method: Inhibition of pqsR-dependent gene expression of test compounds was determined in an E. coli based β-galactosidase reporter gene assay.[19] Escherichia coli DH5α was transfected with pEAL08-2 plasmid encoding pqsR under control of promoter tac and β-galactosidase reporter gene lacZ under control of promoter pqsA. Antagonistic effects of compounds were evaluated in the presence of/in competition to 50 nM PQS. A positive control was used to ensure the reliability of individual assays. First, PQS was diluted in methanol and added to the wells of a glass coated 96-deep-well plate, and the solvent was evaporated. Then, compounds were added in 5 μL DMSO to final concentrations of 0.001-10 μM. Overnight cultures of E. coli DH5a×pEAL08-2 were diluted 1:100 in LB medium with ampicillin (50 μg/ml) and incubated at 37° C. with shaking until it reached an OD600 of 0.2. Finally, 995 μL of culture was added to each well and the p-galactosidase activity was determined by ortho-nitrophenyl-p-galactoside conversion in permeabilized cells after a 2.5 h incubation period (37° C., 180 rpm). OD600, OD420, and OD550 were measured using POLARstar Omega (BMG Labtech, Ortenberg, Germany), and the activity was expressed as ratio of the slope of β-galactosidase activity between basal control (no PQS) and solvent control. IC50 values of antagonists were determined by variation of the concentration of the test compounds.

Chain of PqsR (Q9I4X0 whole entry): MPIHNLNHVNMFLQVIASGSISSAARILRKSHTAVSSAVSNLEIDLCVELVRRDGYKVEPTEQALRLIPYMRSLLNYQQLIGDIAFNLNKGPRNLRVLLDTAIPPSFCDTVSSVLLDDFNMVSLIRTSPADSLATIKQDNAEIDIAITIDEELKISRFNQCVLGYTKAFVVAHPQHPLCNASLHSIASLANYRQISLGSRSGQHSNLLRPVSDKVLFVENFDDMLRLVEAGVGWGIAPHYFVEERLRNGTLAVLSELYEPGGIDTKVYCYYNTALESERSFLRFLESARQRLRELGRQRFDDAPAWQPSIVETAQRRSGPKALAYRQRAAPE

SMILES	IC50 [µM]
Fc1cc(-n2cc(CSc3ccnc(C(F)(F)F)c3)nn2)ccc1OC(F)(F)F [Compound 064, 4-(((1-(3-fluoro-4-(trifluoromethoxy)phenyl)-1H-1,2,3-triazol-4-yl)methyl)thio)-2-(trifluoromethyl)pyridine]	0.051 to 0.25
CN(c1ccccc1)c1ccc(-n2cc(CNc3ccnc(C(F)(F)F)c3)nn2)cc1 [Compound 029, N-((1-(4-(Methyl(phenyl)amino)phenyl)-1H-1,2,3-triazol-4-yl)methyl)-2-(trifluoromethyl)pyridin-4-amine]	0.051 to 0.25
FC(F)(F)c1cc(SCc2ccc(-c3ccc(Cl)nc3)cc2)ccn1 [Compound 110, 4-((4-(6-Chloropyridin-3-yl)benzyl)thio)-2-(trifluoromethyl)pyridine]	0.251 to 1
N#Cc1ccc(-c2nc(CNc3ccnc(C(F)(F)F)c3)cs2)cc1 [Compound 085, 4-(4-(((2-(Trifluoromethyl)pyridin-4-yl)amino)methyl)thiazol-2-yl)benzonitrile]	0.251 to 1
FC(F)(F)c1cc(SCc2cn(-c3ccc(Br)cc3)nn2)ccn1 [Compound 058, 4-(((1-(4-Bromophenyl)-1H-1,2,3-triazol-4-yl)methyl)thio)-2-(trifluoromethyl)pyridine]	0.051 to 0.25
Fc1cccc(-n2cc(CNc3ccnc(C(F)(F)F)c3)nn2)c1 [Compound 009, N-((1-(3-Fluorophenyl)-1H-1,2,3-triazol-4-yl)methyl)-2-(trifluoromethyl)pyridin-4-amine]	0.251 to 1
FC(F)(F)c1cc(SCc2nc(-c3ccc(Cl)cc3)no2)ccn1 [Compound 137, 3-(4-Chlorophenyl)-5-(((2-(trifluoromethyl)pyridin-4-yl)thio)methyl)-1,2,4-oxadiazole]	0.251 to 1
FC(F)(F)c1cc(NCc2cn(-c3ccc(Cl)cc3)nn2)ccn1 [Compound 008, N-((1-(4-chlorophenyl)-1H-1,2,3-triazol-4-yl)methyl)-2-(trifluoromethyl)pyridin-4-amine]	0.051 to 0.25
COc1cc(-n2cc(CNc3ccnc(C(F)(F)F)c3)nn2)ccc1Br [Compound 023, N-((1-(4-Bromo-3-methoxyphenyl)-1H-1,2,3-triazol-4-yl)methyl)-2-(trifluoromethyl)pyridin-4-amine]	0.251 to 1
FC(F)(F)c1nccc(SCc2cn(-c3ccc(Cl)cc3)nn2)n1 [Compound 060, 4-(((1-(4-chlorophenyl)-1H-1,2,3-triazol-4-yl)methyl)thio)-2-(trifluoromethyl)pyrimidine]	0.251 to 1
FC(F)(F)c1cc(NCc2ncc(-c3ccc(Cl)nc3)cn2)ccn1 [Compound 099, N-((5-(6-Chloropyridin-3-yl)pyrimidin-2-yl)methyl)-2-(trifluoromethyl)pyridin-4-amine]	0.251 to 1
Fc1ccc(-n2cc(CNc3ccnc(C(F)(F)F)c3)nn2)cc1F [Compound 020, N-((1-(3,4-Difluorophenyl)-1H-1,2,3-triazol-4-yl)methyl)-2-(trifluoromethyl)pyridin-4-amine]	0.051 to 0.25
FC(F)(F)c1cc(NCc2cn(-c3cccc(CN4CCOCC4)c3)nn2)ccn1 [Compound 002, N-((1-(3-(Morpholinomethyl)phenyl)-1H-1,2,3-triazol-4-yl)methyl)-2-(trifluoromethyl)pyridin-4-amine]	0.251 to 1
FC(F)(F)c1cc(SCc2cnc(-c3ccc(Cl)cc3)s2)ccn1 [Compound 067, 2-(4-Chlorophenyl)-5-(((2-(trifluoromethyl)pyridin-4-yl)thio)methyl) thiazole]	0.251 to 1
FC(F)(F)c1cc(OCc2nc3ccc(Oc4ccccc4)cc3o2)ccn1 [Compound 133, 6-Phenoxy-2-(((2-(trifluoromethyl)pyridin-4-yl)oxy)methyl)benzo[d]oxazole]	0.251 to 1
COc1cc(SCc2nc3cc(Oc4ccccc4)ccc3[nH]2)nc(C(F)(F)F)n1 [Compound 126, 2-(((6-Methoxy-2-(trifluoromethyl)pyrimidin-4-yl)thio)methyl)-5-phenoxy-1H-benzo[d]imidazole]	0.251 to 1
FC(F)(F)c1cc(NCc2csc(-c3cccc(Oc4ccccc4)c3)n2)ccn1 [Compound 089, N-((2-(3-Phenoxyphenyl)thiazol-4-yl)methyl)-2-(trifluoromethyl)pyridin-4-amine]	0.051 to 0.25
FC(F)(F)c1cc(NCc2cn(-c3ccc(CN4CCOCC4)cc3)nn2)ccn1 [Compound 019, N-((1-(4-(Morpholinomethyl)phenyl)-1H-1,2,3-triazol-4-yl)methyl)-2-(trifluoromethyl)pyridin-4-amine]	0.251 to 1
Fc1cc(Br)ccc1-n1cc(CNc2ccnc(C(F)(F)F)c2)nn1 [Compound 024, N-((1-(4-Bromo-2-fluorophenyl)-1H-1,2,3-triazol-4-yl)methyl)-2-(trifluoromethyl)pyridin-4-amine]	0.051 to 0.25
FC(F)(F)c1cc(SCc2ccc(-c3ccc(Oc4ccccc4)cc3)cn2)ccn1 [Compound 109, 4-(((5-(4-phenoxyphenyl)pyridin-2-yl)methyl)thio)-2-(trifluoromethyl)pyridine]	0.251 to 1
Fc1ccc(-n2cc(CNc3ccnc(C(F)(F)F)c3)nn2)cc1 [Compound 010, N-((1-(4-Fluorophenyl)-1H-1,2,3-triazol-4-yl)methyl)-2-(trifluoromethyl)pyridin-4-amine]	0.051 to 0.25
Fc1ccc(-n2cc(CNc3ccnc(C(F)(F)F)c3)nn2)cc1Cl [Compound 027, N-((1-(3-Chloro-4-fluorophenyl)-1H-1,2,3-triazol-4-yl)methyl)-2-(trifluoromethyl)pyridin-4-amine]	0.251 to 1
FC(F)(F)c1nc(Cl)cc(SCc2nc3cc(Oc4ccccc4)ccc3[nH]2)n1 [Compound 124, 2-(((6-Chloro-2-(trifluoromethyl)pyrimidin-4-yl)thio)methyl)-5-phenoxy-1H-benzo[d]imidazole]	0.251 to 1
COc1ncc(-c2ccc(CSc3ccnc(C(F)(F)F)c3)nc2)cc1Cl [Compound 115, 5-Chloro-6-methoxy-6′-(((2-(trifluoromethyl)pyridin-4-yl)thio)methyl)-3,3′-bipyridine]	0.251 to 1
COc1c(C)cc(-c2ncc(CNc3ccnc(C(F)(F)F)c3)s2)cc1C [Compound 075, N-((2-(4-Methoxy-3,5-dimethylphenyl)thiazol-5-yl)methyl)-2-(trifluoromethyl)pyridin-4-amine]	0.251 to 1
FC(F)(F)c1cc(SCc2nc3cc(Cl)ccc3[nH]2)ccn1 [Compound 123, 5-Chloro-2-(((2-(trifluoromethyl)pyridin-4-yl)thio)methyl)-1H-benzo[d]imidazole]	0.251 to 1
FC(F)(F)c1cc(SCc2nnn(-c3ccc(Cl)cc3)n2)ccn1 [Compound 138, 4-(((2-(4-Chlorophenyl)-2H-tetrazol-5-yl)methyl)thio)-2-(trifluoromethyl)pyridine]	0.251 to 1
FC(F)(F)c1cc(NCc2cn(-c3ccc(-n4ncc5ncccc54)cc3)nn2)ccn1 [Compound 149, N-((1-(4-(1H-pyrazolo[4,3-b]pyridin-1-yl)phenyl)-1H-1,2,3-triazol-4-yl)methyl)-2-(trifluoromethyl)pyridin-4-amine]	≤ 0.05
FC(F)(F)c1cc(SCc2nnc(-c3ccc(Cl)cc3)o2)ccn1 [Compound 136, 2-(4-Chlorophenyl)-5-(((2-(trifluoromethyl)pyridin-4-yl)thio)methyl)-1,3,4-oxadiazole]	0.251 to 1
